According to patent publication US6403619B1, “Method for controlling cell necrosis or apoptosis” (University of Kentucky Research Foundation, priority 1998, dated 2002):

What was measured:
[1] = Local vasodilation following topical application of cream (assesses rate of hydrolysis to nicotinate); type: in vivo; details: for duration of vasodilation / onset of vasodilation: topical application of a cream containing 0.05%
Source text: The next issue considered was the rate of hydrolysis of topically applied pro-NAD agents to nicotinic acid such that conversion to NAD can be completed by the pathway shown in FIG. 11. The rates of hydrolysis of a pro-NAD agent following topical application can be assessed by evaluation of local vasodilation following topical application of a pro-NAD agent. […] Experiments have compared the absence or presence of vasodilation (and the time course of vasodilation when present) for a number of the pro-NAD agents shown in FIG. 13. For example, application of a cream containing 0.05% hexylnicotinate results in vasodilation with onset at approximately 10 minutes and duration of approximately 90 minutes. A similar application of octylnicotinate results in an onset of vasodilation at approximately 15 minutes with duration of 360 minutes. […] These experiments indicate that tetradecylnicotinate is released very slowly following application. Two factors are likely involved in the rate of hydrolysis of topically applied pro-NAD agents, the rate of departure from the stratum corneum and the rate of hydrolysis by esterases present in the epidermal and dermal layers of the skin.

[2] = Signs of toxicity after topical application, hairless mouse model; type: in vivo; details: topical 1% cream, experiments of FIGS. 15 and 16
Protocol: (§1) Based on evaluation of pro-NAD agents, proof of principle experiments for elevation of skin cell NAD content by topical delivery were performed using a hairless mouse model. In brief, tetradecylnicotinate was used for the initial studies. In the study three daily topical applications of 1% tetradecylnicotinate cream to the back of the animals and no cream were applied to the abdomen. Immediately following the third application, the skin from the back and abdomen were analyzed for NAD content. Test samples of skin were frozen in liquid nitrogen and powdered by mechanical means. NAD content was assessed as described previously (Jacobson, E L, and Jacobson, M K Meth Enzymol 280, 221-230, 1997; Jacobson, E L et al., J Cell Physiol 99, 417-426, 1979). The NAD assay is based on the principle of enzymic cycling between oxidized and reduced states, in which NAD is rate-limiting for a series of amplification reactions. Total protein was assayed by the Bradford assay.
(§2) In another experiment, the effect of the number of daily application of 1% tetradecylnicotinate cream was examined. Again, application was made to the back of the animal and the abdomen of each animal served as control.

NAD content of skin = test: Skin NAD content after topical application, hairless mouse model; type: in vivo
Protocol: as §1, §2

[3] = Octanol/water partition coefficient; type: physicochemical; details: extrapolated from Po/w values of the shorter esters; FIG. 14
Source text: The first issue considered was the physical-chemical properties of the pro-NAD agents most desirable for topical application. The nicotinic acid molecule may not be optimal because it may be too polar to be effectively delivered to skin cells topically. Molecules that are too polar may not effectively partition into the apolar stratum corneum layer of skin and following passage across the stratum corneum, it would be expected to rapidly enter the systemic circulation. To evaluate the potential of these pro-NAD agents to partition into the stratum corneum, the octanol/water partition coefficients for the methyl, eythl-, butyl-, hexyl-, and octyl-esters of nicotinate were experimentally determined.
The octanol/water partition coefficient was determined by dissolving a known amount of pro-NAD agent in water and then mixing the aqueous compound with a known volume of octanol. After mixing for a period of 1 to 18 hours, aliquots of the water phase were analyzed by HPLC for the amount of remaining pro-NAD agent. The partition coefficient (P) was calculated from the following equation:
log Po/w=log10((Co−C)CVo))
where Co is the initial concentration in water and C is the concentration after partitioning. Vw and Vo represent the volume of water and octanol phases respectively.

[4] = system: Malignant epithelial cells; test: Doubling of malignant epithelial cell populations under PARP (tankyrase) inhibition; type: cell-based; details: 0.1 M; after 10 weeks; compared with control grown without it; FIG. 20
Protocol: Malignant epithelial cells were grown in the presence of 0.1 M benzamide, which is known to inhibit all PARPs. The doubling of the cell populations was observed over a period of time, and compared to a control, which was grown in the absence of benzamide.

human skin fibroblasts = test: Bioconversion of pro-NAD agents to NAD by skin fibroblasts in culture; type: cell-based; details: FIG. 11
Protocol: A series of experiments were performed to determine the possible classes of pro-NAD agents that may be used for the elevation of skin cell NAD content by topical application. Any compound that can be converted to NAD is referred to here as a “pro-NAD” agent.

p53 = details: high levels of the agent; in the absence of and following genotoxic stress; FIG. 12B
Protocol: Briefly, cells were grown in control or suboptimal niacin media as described in Example 1 above, resulting in cells with normal or low NAD content. The protein of the cells was then extracted and portions of the extract were separated by SDS-polyacrylamide gel electrophoresis (SDS-PAGE) and p53 protein content was determined by immunoblotting (western blotting). […] FIG. 9B compares the relative content of p53 following genotoxic stress caused by the alkylating agent MNNG in cells with a low or normal NAD content.

Epithelial cells = test: Necrosis and apoptosis of epithelial cells under MNNG genotoxic stress; type: cell-based
Protocol: Epithelial cells were subjected to genotoxic stress with the alkylating agent N-methyl-N^1-nitro-N-nitrosoguanidine, or “MNNG” as referred to supra and hereafter. Epithelial cells were cultured in the presence of either no MNNG, 10 μg/mL MNNG, or 20 μg/mL of MNNG, in medium containing either 0, 50 μM or 500 μM nicotinamide. Percent necrosis and apoptosis was studied over time, i.e., for 48 hours. […] Nicotinamide is converted to NAD, but as indicated, none was added in the experiments depicted in 17A and 17D.

cells [5] = test: DNA integrity following genotoxic stress induced by MNNG; type: cell-based; details: high levels (500 micromolar) compared with normal levels (50 micromolar), FIG. 12A
Protocol: The DNA repair proficiency as a function of NAD content has been assessed also by a technique called a “comet assay.” In a comet assay (O. Ostling and K. J. Johanson, Biochem. Biophys. Res. Commun. 123: 291 (1984); P. L. Olive and J. P. Banath, Exp. Cell Res. 221: 19 (1995)), cells are plated out after embedding into liquid agarose on a carrier and lysed in situ after formation of an agarose gel. The DNA of the individual cells is then separated in situ in an electric field. Damaged DNA containing strand breaks migrates away from the cell nucleus due to its smaller size and this migration results in an image where the nucleus appears as the head of the comet and the broken DNA appears as tail of the comet. The more degraded the genomic DNA is, the greater the amount of migration-capable DNA and the longer the “comet tail.”

cells [6] = test: Survival under oxidative genotoxic stress caused by staurosporin; type: cell-based; details: 50 μM in medium compared with none; different concentrations of staurosporin; FIG. 19
Protocol: These experiments describe studies on oxidative genotoxic stress, caused by staurosporin. Cells were contacted with different concentrations of staurosporin, and were cultured in medium that either contained no nicotinamide or 50 μM nicotinamide.

[7] = varying number of daily applications of 1% cream to the back, FIG. 16

## CCCCCCOC(=O)c1cccnc1 [hexylnicotinate]
[1]
  duration of vasodilation: approximately 90 minutes
  onset of vasodilation: approximately 10 minutes

## CCCCCCCCCCCCCCOC(=O)c1cccnc1 [tetradecylnicotinate]
[1]; similar topical application of cream (0.05%)
  vasodilation: does not result in vasodilation
[2]
  signs of toxicity: in no case were any signs of toxicity observed
NAD content of skin; three daily applications of 1% cream to the back, FIG. 15
  NAD content of skin removed from the abdomen (no cream applied): not increased
NAD content of skin; three daily topical applications of 1% cream to the back, back skin, FIG. 15
  skin NAD content relative to control animal treated with base cream only: 143%
NAD content of skin; [7]
  NAD content of skin removed from the back: increased as a function of the number of daily applications
  NAD content of the abdomen (control site): did not increase
[3]
  properties for partitioning into the stratum corneum (Po/w predicted by extrapolation): favorable properties for partitioning into the stratum corneum

## CCCCCCCCOC(=O)c1cccnc1 [octylnicotinate]
[1]
  duration of vasodilation: 360 min
  onset of vasodilation: approximately 15 minutes

## CCCCCCCCCCCCCCCCCCOC(=O)c1cccnc1 [octadecylnicotinate]
[3]
  properties for partitioning into the stratum corneum (Po/w predicted by extrapolation): favorable properties for partitioning into the stratum corneum

## NC(=O)c1ccccc1 [benzamide]
[4]
  doubling of the cell populations: stopped doubling

## O=C(O)c1cccnc1 [nicotinic acid]
Human skin fibroblasts
  bioconversion to NAD: can be bioconverted to NAD

## NC(=O)c1cccnc1 [nicotinamide]
Human skin fibroblasts
  bioconversion to NAD: can be bioconverted to NAD
p53
  p53 levels / p53-signaling response: abnormally high levels of p53
Epithelial cells; 500 μM in medium, MNNG 10 or 20 μg/mL, 48 hours, FIGS. 17C and 17F
  response (necrosis, apoptosis) to MNNG induced genotoxic shock: Normal responses were not established
Epithelial cells; none, 50 μM or 500 μM in medium, FIGS. 18A-18D
  involvement in cell death pathways (cellular morphology over time): involved in cellular necrosis pathways much more than in apoptosis pathways
Cells [5]
  DNA integrity: decreased DNA integrity
Cells [6]
  rate of cell death (percentage survival): rate of cell death is decreased significantly
